The assay can be described thus: Inhibition of esterase in male Ostrinia nubilalis (European corn borer) antenna.

As a reminder, the IC50 is the concentration at which inhibition is half-maximal. A high value points to weaker potency.

`CC/C=C\CCCCCCCCCC(=O)C(F)(F)F` [(Z)-10-tridecenyl trifluoromethyl ketone] registered an IC50 of 7.5 µM. In other words, the single-digit micromolar range.
With `CC/C=C\CCCCCCCCCCC(=O)C(F)(F)F` [(Z)-11-tetradecenyl trifluoromethyl ketone] the figure was 0.28 µM.

(Values after BindingDB's records for doi:10.1021/jf901979k (University of Lleida, 2009).)
